Molecules are shown by their SMILES. Like-named read-outs stand apart in the source and are kept apart here.

What all share (assay type): in vivo
Experiment [1] deals with Cabbage Looper (Trichoplusia ni, TRIPNI). Briefly: Bioassays on Cabbage Looper (CL), 128-well diet tray assay. The following applies: Trichoplusia ni. The method, boiled down:
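Each of eight wells receives artificial diet treated at 50 μg/cm^2 with the test molecule, then one to five second-instar larvae. Incubation runs five to seven days at 25° C with a 14:10 light-dark cycle under vented covers. Mortality is scored per well as a percentage and averaged.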

The test system of experiment [2] is Beet Armyworm (Spodoptera exigua, LAPHEG). Briefly: Bioassays on Beet Armyworm (BAW), 128-well diet tray assay. The following applies: Spodoptera exigua. The method, boiled down: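 Second-instar larvae, one to five per well, were placed on artificial diet surface-treated with 50 μg/cm^2 compound in 90:10 acetone-water, eight wells per treatment. Trays were held 5–7 days at 25 °C, 14:10 light-dark. Percent mortality per well was averaged over eight wells.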

The subject of experiment [3] is Yellow Fever Mosquito (Aedes aegypti, AEDSAE). The following applies: for YFM rating: Table ABC / ABC-DP rating. The method, boiled down:
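Compounds from DMSO master plates (4000 ppm stock) diluted in 90:10 water/acetone, then dispensed into six replicate plates and infested with ~1-day-old Aedes aegypti larvae in liver-powder water. Held covered at room temperature for 3 days; each well scored for larval mortality and graded on a rating scale.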

The mark [4] stands for this setting: Cabbage Looper, Table ABC / ABC-DP rating, read-out: CL rating.
[5] abbreviates: Beet Armyworm, Table ABC / ABC-DP rating, read-out: BAW rating.
The mark [6] stands for this setting: Cabbage Looper, rating class, read-out: CL.
Setting [7] is: Beet Armyworm, rating class, read-out: BAW.
Where [8] appears, read: Yellow Fever Mosquito, rating class.
Setting [9] is: Table ABC: Biological Results, species CL, read-out: CL.
[10] abbreviates: Table ABC: Biological Results, species BAW, read-out: BAW.
The mark [11] stands for this setting: Table ABC: Biological Results, species YFM.

As to `CN(C(=O)c1cc(NC(=O)[C@H]2[C@H](c3ccc(F)c(C(F)(F)F)c3)C2(Cl)Cl)ccc1Cl)c1ccc(F)c(NC(=O)COC(F)(F)F)c1F` [F1796, 2-Chloro-5-((1R,3R)-2,2-dichloro-3-(4-fluoro-3-(trifluoromethyl)phenyl)cyclopropane-1-carboxamido)-N-(2,4-difluoro-3-(2-(trifluoromethoxy)acetamido)phenyl)-N-methylbenzamide], the pest or weed control at 50 µg/cm2 in experiment [1] (setting [4]) and in experiment [2] (setting [5]) was 50 to 100% each time. In experiment [3] (Yellow Fever Mosquito), the YFM rating entry is “A (80–100)”.

`O=C(Nc1cc(NC(=O)C(F)(F)F)c(F)cc1F)c1cc(NC(=O)[C@H]2[C@H](c3cc(Cl)c(Cl)c(Cl)c3)C2(Cl)Cl)ccc1F` [F1551, 5-((1R,3R)-2,2-Dichloro-3-(3,4,5-trichlorophenyl)cyclopropane-1-carboxamido)-N-(2,4-difluoro-5-(2,2,2-trifluoroacetamido)phenyl)-2-fluorobenzamide]: the pest or weed control at 50 µg/cm2 in experiment [1] (setting [6]) and in experiment [2] (setting [7]) was 50 to 100% in each case. Also, the YFM result in experiment [3] (setting [8]) is on record as “A (80–100)”.

Consider `CC(=O)Nc1cc(NC(=O)c2cc(NC(=O)[C@H]3[C@H](c4ccc(F)c(C(F)(F)F)c4)C3(Cl)Cl)ccc2F)c(F)cc1F` [F1559, N-(5-Acetamido-2,4-difluorophenyl)-5-((1R,3R)-2,2-dichloro-3-(4-fluoro-3-(trifluoromethyl)phenyl)cyclopropane-1-carboxamido)-2-fluorobenzamide], for which the pest or weed control at 50 µg/cm2 in experiment [1] (setting [6]) and in experiment [2] (setting [7]) was 50 to 100% in each case. The YFM entry in experiment [3] (setting [8]) is listed as “A (80–100)”.

On to `O=C(NCC(F)(F)F)c1cc(NC(=O)[C@H]2[C@H](c3cc(F)c(F)c(Br)c3)C2(Cl)Cl)ccc1Cl` (relative stereo) [F2003, trans-5-(3-(3-Bromo-4,5-difluorophenyl)-2,2-dichlorocyclopropane-1-carboxamido)-2-chloro-N-(2,2,2-trifluoroethyl)benzamide], for which the pest or weed control at 50 µg/cm2 in experiment [1] (setting [4]) and in experiment [2] (setting [5]) was 50 to 100% each time. In addition, the YFM rating entry in experiment [3] (Yellow Fever Mosquito) is reported as “A (80–100)”.

For `O=C(Nc1ccc(F)cc1F)c1cc(NC(=O)[C@H]2[C@H](c3cc(F)c(Cl)c(Cl)c3)C2(Cl)Cl)ccc1Cl` (relative stereo) [F1024, trans-2-Chloro-5-(2,2-dichloro-3-(3,4-dichloro-5-fluorophenyl)cyclopropane-1-carboxamido)-N-(2,4-difluorophenyl)benzamide], the pest or weed control at 50 µg/cm2 in experiment [1] (setting [9]) and in experiment [2] (setting [10]) was 50 to 100% in each case. Moreover, the YFM result in experiment [3] (setting [11]) is given as “A (80–100)”.

Regarding `CCN(C(=O)OC(C)(C)C)c1c(F)ccc(NC(=O)c2cc(NC(=O)[C@H]3[C@H](c4ccc(F)c(C(F)(F)F)c4)C3(Cl)Cl)ccc2Cl)c1F` [F1761, tert-Butyl (3-(2-chloro-5-((1R,3R)-2,2-dichloro-3-(4-fluoro-3-(trifluoromethyl)phenyl)cyclopropane-1-carboxamido)benzamido)-2,6-difluorophenyl)(ethyl)carbamate], the pest or weed control at 50 µg/cm2 in experiment [1] (setting [6]) and in experiment [2] (setting [7]) was 50 to 100% throughout. Moreover, in experiment [3] (setting [8]), the YFM entry is given as “A (80–100)”.

`O=C(NCC(F)(F)F)c1cc(NC(=O)[C@H]2[C@@H](c3cc(F)c(Cl)c(Cl)c3)C2(Cl)Cl)ccc1Cl` (relative stereo) [F2007, cis-2-Chloro-5-(2,2-dichloro-3-(3,4-dichloro-5-fluorophenyl)cyclopropane-1-carboxamido)-N-(2,2,2-trifluoroethyl)benzamide]: the pest or weed control at 50 µg/cm2 in experiment [1] (setting [4]) and in experiment [2] (setting [5]) was 50 to 100% in each case. In experiment [3] (Yellow Fever Mosquito), the YFM rating result is “A (80–100)”.

Regarding `CN(C(=O)C(F)(F)F)c1c(F)ccc(NC(=O)c2cc(NC(=O)[C@H]3[C@H](c4ccc(Cl)c(Cl)c4)C3(Cl)Cl)ccc2Cl)c1F` [F1614, 2-Chloro-5-((1R,3R)-2,2-dichloro-3-(3,4-dichlorophenyl)cyclopropane-1-carboxamido)-N-(2,4-difluoro-3-(2,2,2-trifluoro-N-methylacetamido)phenyl)benzamide], the pest or weed control at 50 µg/cm2 in experiment [1] (setting [6]) and in experiment [2] (setting [7]) was 50 to 100% in each case. Also, in experiment [3] (setting [8]), the YFM result is reported as “A (80–100)”.

Regarding `CCOC(C)C(=O)N(CC)c1c(F)ccc(NC(=O)c2cc(NC(=O)[C@H]3[C@H](c4ccc(F)c(C(F)(F)F)c4)C3(Cl)Cl)ccc2Cl)c1F` (stereo partly drawn) [F1827, 2-Chloro-5-((1R,3R)-2,2-dichloro-3-(4-fluoro-3-(trifluoromethyl)phenyl)cyclopropane-1-carboxamido)-N-(3-(2-ethoxy-N-ethylpropanamido)-2,4-difluorophenyl)benzamide], the pest or weed control at 50 µg/cm2 in experiment [1] (setting [4]) and in experiment [2] (setting [5]) was 50 to 100% throughout. Further, in experiment [3] (Yellow Fever Mosquito), the YFM rating entry was “A (80–100)”.

Regarding `O=C(Nc1ccc(F)cc1F)c1cc(NC(=O)[C@H]2[C@H](c3cc(C(F)(F)F)ccc3Cl)C2(Cl)Cl)ccc1Cl` (relative stereo) [F1004, trans-2-Chloro-5-(2,2-dichloro-3-(2-chloro-5-(trifluoromethyl)phenyl)cyclopropane-1-carboxamido)-N-(2,4-difluorophenyl)benzamide], the pest or weed control at 50 µg/cm2 in experiment [1] (setting [9]) and in experiment [2] (setting [10]) was 50 to 100% in each case. For the same molecule, in experiment [3] (setting [11]), the YFM entry is reported as “A (80–100)”.

As to `Nc1c(F)ccc(NC(=O)c2cc(NC(=O)[C@H]3[C@H](c4cccc(Br)c4)C3(Cl)Cl)ccc2Cl)c1F` (relative stereo) [F1594, trans-N-(3-Amino-2,4-difluorophenyl)-5-(3-(3-bromophenyl)-2,2-dichlorocyclopropane-1-carboxamido)-2-chlorobenzamide], the pest or weed control at 50 µg/cm2 in experiment [1] (setting [6]) and in experiment [2] (setting [7]) was 50 to 100% throughout. In experiment [3] (setting [8]), the YFM entry is given as “A (80–100)”.

As to `COCC(=O)Nc1c(F)ccc(NC(=O)c2cc(NC(=O)[C@H]3[C@H](c4cc(Cl)c(Cl)c(Cl)c4)C3(Cl)Cl)ccc2Cl)c1F` [F1646, 2-Chloro-5-((1R,3R)-2,2-dichloro-3-(3,4,5-trichlorophenyl)cyclopropane-1-carboxamido)-N-(2,4-difluoro-3-(2-methoxyacetamido)phenyl)benzamide], the pest or weed control at 50 µg/cm2 in experiment [1] (setting [6]) and in experiment [2] (setting [7]) was 50 to 100% in each case. In addition, the YFM result in experiment [3] (setting [8]) is “A (80–100)”.

For the molecule `O=C(Nc1ccc(F)c(NC(=O)C2(F)OC(F)(F)C(F)(F)C2(F)F)c1F)c1cc(NC(=O)[C@H]2[C@H](c3ccc(F)c(C(F)(F)F)c3)C2(Cl)Cl)ccc1Cl` (stereo partly drawn) [F1782, N-(3-(2-Chloro-5-((1R,3R)-2,2-dichloro-3-(4-fluoro-3-(trifluoromethyl)phenyl)cyclopropane-1-carboxamido)benzamido)-2,6-difluorophenyl)-2,3,3,4,4,5,5-heptafluorotetrahydrofuran-2-carboxamide], the pest or weed control at 50 µg/cm2 in experiment [1] (setting [4]) and in experiment [2] (setting [5]) was 50 to 100% throughout. Further, the YFM rating result in experiment [3] (Yellow Fever Mosquito) is listed as “A (80–100)”.

The record behind these values is US20250228239A1, “MOLECULES HAVING PESTICIDAL UTILITY, AND INTERMEDIATES, COMPOSITIONS, AND PROCESSES, RELATED THERETO” (priority 2024, published 2025).
